Assay results: ChEMBL document CHEMBL1201862, “PubChem BioAssay data set” (2004)
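A five-concentration, 48-hour dose response in 96-well plates underlies each endpoint, interpolated linearly between surrounding concentrations. Here, GI50 denotes the concentration required for 50% inhibition of growth.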 Active and inactive are the calls of the source. No stated cut-off is given here; in the data, active = GI50 up to about 1.1 µM and inactive = higher.

Columns and labels:
Experiment in all cases: NCI anticancer screen, dose series, 48 h
[1] = test system: U-251
[2] = test system: SW-620
[3] = test system: UO-31
[4] = test system: SNB-75
[5] = test system: KM12
[6] = test system: Malme-3M
[7] = test system: COLO 205
[8] = test system: RPMI-8226
[9] = test system: HT-29
[10] = test system: PC-3
[11] = test system: A498
[12] = test system: UACC-257
[13] = test system: BT-549
[14] = test system: HCT-15
[15] = test system: T47D
[16] = test system: SK-MEL-5
[17] = test system: SK-MEL-28
[18] = test system: SF-295
[19] = test system: SNB-19

SMILES	GI50 [1]	GI50 [2]	GI50 [3]	GI50 [4]	GI50 [5]	GI50 [6]	GI50 [7]	GI50 [8]	GI50 [9]	GI50 [10]	GI50 [11]	GI50 [12]	GI50 [13]	GI50 [14]	GI50 [15]	GI50 [16]	GI50 [17]	GI50 [18]	GI50 [19]
CC(C)(CO)CNc1nc(N)nc(Cl)c1/C=N/O	48.6 µM (inactive)	82.6 µM (inactive)	17.3 µM (inactive)	50.9 µM (inactive)	84.5 µM (inactive)	57.4 µM (inactive)	62.7 µM (inactive)	15.2 µM (inactive)	42.1 µM (inactive)	49.5 µM (inactive)	23.9 µM (inactive)	36.1 µM (inactive)	23.6 µM (inactive)	61.7 µM	4.31 µM (inactive)	5.78 µM (inactive)	48.4 µM (inactive)	14.1 µM (inactive)	–
c1cc2nnc1SCCCSc1ccc(nn1)SCCCS2	17.3 µM (inactive)	> 53.3 µM (inactive)	> 100 µM (inactive)	25.1 µM (inactive)	> 35.6 µM (inactive)	> 48.8 µM (inactive)	> 47 µM (inactive)	> 25.3 µM (inactive)	> 30.2 µM (inactive)	38.7 µM (inactive)	97.7 µM (inactive)	> 39.9 µM (inactive)	19.9 µM (inactive)	–	31.3 µM (inactive)	29.1 µM (inactive)	> 46.5 µM (inactive)	20.5 µM (inactive)	33.1 µM (inactive)
NC(=O)C[S+]([O-])CC(N)C(=O)O (stereo unspecified)	> 100 µM (inactive)	> 100 µM (inactive)	> 100 µM (inactive)	> 100 µM (inactive)	> 100 µM (inactive)	> 100 µM (inactive)	–	–	> 100 µM (inactive)	> 100 µM (inactive)	> 100 µM (inactive)	> 100 µM (inactive)	> 100 µM (inactive)	> 100 µM	> 100 µM (inactive)	> 100 µM (inactive)	> 100 µM (inactive)	> 100 µM (inactive)	> 100 µM (inactive)
O=C(N/N=C(COc1ccccc1Cl)\N=C\c1ccncc1)c1ccncc1	> 100 µM (inactive)	> 100 µM (inactive)	–	15.9 µM (inactive)	> 100 µM (inactive)	> 100 µM (inactive)	> 100 µM (inactive)	> 100 µM (inactive)	> 100 µM (inactive)	> 100 µM (inactive)	> 100 µM (inactive)	> 100 µM (inactive)	> 100 µM (inactive)	> 100 µM	> 100 µM (inactive)	–	> 100 µM (inactive)	> 100 µM (inactive)	> 100 µM (inactive)
COc1ccc(C(=O)c2[nH]c(Nc3cc(C)ccn3)c(C(=S)Nc3ccccc3)c2N)cc1	15.3 µM (inactive)	25.3 µM (inactive)	21.8 µM (inactive)	20.5 µM (inactive)	13.3 µM (inactive)	14.6 µM (inactive)	19.4 µM (inactive)	13.3 µM (inactive)	17.5 µM (inactive)	21.2 µM (inactive)	15.9 µM (inactive)	15.9 µM (inactive)	19.6 µM (inactive)	21.1 µM	51.2 µM (inactive)	–	17 µM (inactive)	17.9 µM (inactive)	18.8 µM (inactive)
Oc1ccc(/C=N/CC2CCCN3CCCCC23)cc1 (stereo unspecified)	17.6 µM (inactive)	–	23.1 µM (inactive)	51.8 µM (inactive)	16.4 µM (inactive)	24.7 µM (inactive)	27.6 µM (inactive)	20.9 µM (inactive)	16.6 µM (inactive)	26.4 µM (inactive)	26.5 µM (inactive)	24.3 µM (inactive)	21.3 µM (inactive)	24.4 µM	31.3 µM (inactive)	20.5 µM (inactive)	22.5 µM (inactive)	26.1 µM (inactive)	25.3 µM (inactive)
